The source of these data is patent publication US8853359B2, “Endokinin C/D-derived peptides” (University of Miyazaki, priority 2009, dated 2014).

For test [1], the system named is carrageenan-induced thermal hyperalgesia. Put plainly: withdrawal latency to noxious thermal stimulation after carrageenan, intrathecal pre-administration of peptide. Format: in vivo, rat. To be noted: 10^-3M (10 nmol/10 μl) peptide intrathecal; 2% carrageenan 4 hours later; FIG. 9B. As to the method:
(§1) In Example 6, 10^−3M (10 nmol/10 μl) D-EKC/D (3), (5), or (7), Spantide I, or saline (10 μl) was administered to intrathecally catheterized rats via catheters. Four hours later, 100 μl of 2% carrageenan (2 mg/100 μl) was subcutaneously administered to rat plantar.
Meanwhile, noxious thermal stimulation was applied to paw plantar using infrared rays at 10-minute intervals after carrageenan administration. The time (latency period) required for withdrawal response to take place was measured. The latency period before untreated rats following noxious thermal stimulation was designated as the control latency period.

Test [2] deals with formalin-induced pain behavior. In words: formalin-induced pain behavior (flinching) after intrathecal pre-administration of peptide. Format: in vivo, rat. As to the method: In Example 5, 10^−3M (10 nmol/10 μl) D-EKC/D (3), (5), or (7), Spantide I, or saline (10 μl) was administered to intrathecally catheterized rats via catheters and then 4 hours later, 50 μl of 2% formalin was administered subcutaneously to hind paws of rats. The number of flinching (pain behavior) was determined for 60 minutes after formalin administration, so that the degree of pain could be evaluated. During the 10-minute period after formalin administration (referred to as phase I), pain behavior was measured once every 2 minutes (1 minute per measurement). During the period from 10 minutes to 60 minutes after formalin administration (referred to as phase II), pain behavior was measured once every 5 minutes (1 minute per measurement), so that the degree of pain could be evaluated. During phase I, behavior (phasic pain) resulting from chemical stimulation accompanying formalin administration was observed. During phase II, tonic pain following the phasic pain was observed.
The horizontal axis indicates time (minutes) after formalin administration and the vertical axis indicates the measured number of pain behavior per minute.

Test [3] relates to substance P-induced scratching behavior. Put plainly: substance P-induced scratching behavior after intrathecal pre-administration of test peptide. Format: in vivo, rat. As to the method:
In Example 1, 10^−3M (10 nmol/10 μl) EKC/D or D-EKC/D (1), (2) or (3) was administered to intrathecally catheterized rats via catheters. After the predetermined time periods denoted on the horizontal axis in FIG. 1, the numbers of scratching events (scratching behavior) induced by intrathecal administration of 10^−3M (10 nmol/10 μl) substance P (hereafter, referred to as “SP”) were determined. Here, the expression “10^−3M (10 nmol/10 μl) EKC/D or D-EKC/D (1), (2), or (3) was administered” refers to a situation in which 10 μl in total of a solution (that is, 10^−3M solution) containing 10 nmol of EKC/D or D-EKC/D (1), (2), or (3) was all administered. The expression, “ . . . administration of 10^−3M substance P (10 nmol/10 μl)” refers to a situation in which 10 μl in total of a solution (that is, 10^−3M solution) containing 10 nmol of the substance was all administered. The same similarly applies below.
Meanwhile, saline (10 μl) was intrathecally administered to intrathecally catheterized rats via catheters and then, after 30 minutes, 10^−3M SP (10 nmol/10 μl) was intrathecally administered to the rats. The number of the thus induced scratching events was determined to be the number of scratching events in the control group. The control group is denoted with saline-4-SP in FIG. 1.
The vertical axis of the graph in FIG. 1 indicates changes in the numbers of scratching events (represented by relative values) due to administration of 10^−3M EKC/D or D-EKC/D (1), (2), or (3) when the number of scratching events (of untreated rats in a control group) induced by intrathecal administration of 10^−3M substance P was determined to be 100%. Meanwhile, the horizontal axis indicates the intervals between the administration of EKC/D, D-EKC/D (1), (2), or (3) and 10^−3M substance P. […]
The test was conducted with procedures similar to those in Example 1, except for 4 hours of interval between the administration of each test peptide and the administration of substance P. The concentration of each test peptide and that of substance P for administration were determined to be 10^−3M (10 nmol/10 μl), similarly to Example 1. The number of scratching events in the control group was determined with procedures similar to those in Example 1, such that substance P was administered at 30 minutes after administration of saline (10 μl) and then the number was determined.

In test [4] the test system is carrageenan-induced inflammation. In words: carrageenan-induced increase in paw size after intrathecal pre-administration of peptide. Format: in vivo, rat. As to the method: as §1
Paw size was measured with time for 60 minutes after carrageenan administration. The paw size (control) before carrageenan administration was designated as the basal level, and the increases in paw size were then calculated.

The subject of test [5] is carrageenan-induced thermal hyperalgesia. Put plainly: carrageenan-induced thermal hyperalgesia (withdrawal latency), EKC/D injected 1 hour after carrageenan. Format: in vivo, rat. An excerpt:
Intraplantar injection of carrageenan induces thermal hyperalgesia accompanying inflammation. To examine induction of thermal hyperalgesia, noxious thermal stimulation was applied to plantar using infrared rays. It can be said that thermal hyperalgesia takes place when the latency period of the withdrawal response becomes shorter than that for untreated rats. In FIG. 5, the vertical axis of the graph indicates the latency period in seconds and the horizontal axis of the graph indicates the time after injection of saline or EKC/D in minutes. The latency period in untreated rats (control) after noxious thermal stimulation was about 21 seconds. When saline (100 μl) was injected at 1 hour after carrageenan injection, the latency period was about 13 seconds. […] This state was sustained for 60 minutes (saline). […] When 10^−5M (1 nmol/100 μl) and 10^−6M ([…]) EKC/D were injected, the latency period before rats responded to noxious thermal stimulation was about 17 seconds, which was longer than that in the case of treatment with saline (EKC/D10^−5 M and EKC/D 10^−6 M).

In test [6] the test system is carrageenan-induced inflammation. Put plainly: carrageenan-induced increase in paw size, EKC/D injected 1 hour after carrageenan. Format: in vivo, rat. As to the method: The vertical axis of the graph in FIG. 4 indicates increases (%) in paw size and the horizontal axis indicates the time after administration of saline (100 μl: saline) or EKC/D with “minutes,” thereby showing the time course changes of anti-inflammatory effects of EKC/D administration on carrageenan-induced inflammation. The paw size before carrageenan administration was determined to be 100%. Paw size was increased by about 50% (saline) as measured using a paw size meter at 1 hour after carrageenan injection. This state continued for about 60 minutes (saline). […] When 10^−3M EKC/D (100 nmol/100 μl) was injected, paw size had decreased to about 40% at 10 minutes after, to about 20% at 30 minutes after, and to about 40% at 50 minutes after injection.
A general note: Carrageenan injected into the paw causes an acute inflammation.

Test [7] concerns scratching behavior and thermal hyperalgesia induced by SP or EKA/B. To be noted: Non-patent document 3, cited from earlier work.

Ends that are not written are not given here.

Turning to “Glu-His-Thr-Phe-Gln-DTrp-Leu-Leu-NH2 (EHTFQXLL; HELM PEPTIDE1{E.H.T.F.Q.[dW].L.L.[am]}$$$$V2.0; N-terminus assumed; SMILES CC(C)C[C@H](NC(=O)[C@H](CC(C)C)NC(=O)[C@@H](Cc1c[nH]c2ccccc12)NC(=O)[C@H](CCC(N)=O)NC(=O)[C@H](Cc1ccccc1)NC(=O)[C@@H](NC(=O)[C@H](Cc1c[nH]cn1)NC(=O)[C@@H](N)CCC(=O)O)[C@@H](C)O)C(N)=O) [D-EKC/D (5)]”, the “withdrawal time (latency period)” value in test [1] is reported as “significant increases”. Further, the “numbers of pain behavior during phase I” value in test [2] (10^-3M (10 nmol/10 μl) peptide intrathecal, 2% formalin 4 hours later, 0-10 minutes after formalin) was “significantly decreased”. Further, in test [2] (10^-3M (10 nmol/10 μl) peptide intrathecal, 2% formalin 4 hours later, 10-60 minutes after formalin), the “numbers of pain behavior during phase II” value was “significantly decreased”. The “suppressing effects on formalin-induced pain behavior compared with Spantide I” value in test [2] (10^-3M intrathecal, formalin 4 hours later) is given as “sustained longer compared with the effects of Spantide I”. Moreover, the “scratching behavior induced by substance P” value in test [3] (Example 2, FIG. 2, 10^-3M peptide, SP 4 hours after peptide, control about 380 scratching) was “almost never induced”. Also, in test [3] (Example 2, FIG. 2, 10^-3M peptide, interval 8 hours and then 14 hours), the “suppressive effects on scratching as administration interval is prolonged” value is “gradually attenuated”. Further, in test [3] (Example 3, FIG. 3, 10^-3M peptide, SP 4 hours after peptide, control 380 scratching), the “scratching behavior induced by substance P / suppressive effects” value was “attenuated”. For the same substance, the “rate of increase of paw sizes” value in test [4] (10^-3M (10 nmol/10 μl) peptide intrathecal, 2% carrageenan 4 hours later, FIG. 9A) was “significant decreases”. In addition, in test [4] (10^-3M intrathecal, carrageenan 4 hours later), the “effects on paw size and withdrawal time compared with Spantide I” value is listed as “sustained to a greater extent than the effects of Spantide I”.

Take “Ala-Tyr-Gln-Leu-Glu-His-Thr-Phe-Gln-Gly-Leu-Leu-NH2 (AYQLEHTFQGLL-NH2; listed as Homo sapiens) [EKC/D]”: the “latency period following noxious thermal stimulation” value in test [5] (10^-3M EKC/D (100 nmol/100 μl), untreated about 21 seconds, saline about 13 seconds) is “almost the same as that in the case of untreated rats”; in test [5] (10^-4M EKC/D (10 nmol/100 μl)), “almost the same tendency as that in the case of 10^−3M EKC/D”; in test [5] (10^-5M EKC/D (1 nmol/100 μl)) it was “about 17 seconds”; in test [5] (10^-6M EKC/D (100 μmol/100 μl)), “about 17 seconds”; in test [5] (10^-7M EKC/D (10 pmol/100 μl)), “almost the same as that in the case of saline”. In addition, in test [3] (10^-3M (10 nmol/10 μl) peptide intrathecal, 10^-3M SP 30 minutes after peptide, FIG. 1), the “number of scratching events induced by substance P, relative to control group (saline+SP = 100%)” value was “about 60%”. The “duration of suppressive effects on substance P-induced scratching behavior” value in test [3] (10^-3M peptide intrathecal, 10^-3M SP) was no more than 1 h. Also, the “number of scratching events induced by substance P, relative to control group” value in test [3] (10^-3M peptide intrathecal, SP 1 hour after peptide, FIG. 1) is recorded as “restored 1 hour later to the same degree as that for the control group”. Further, the “increases in paw size accompanying inflammation due to carrageenan, overall” value in test [6] (10^-3M EKC/D (100 nmol/100 μl)) is “significantly suppressed”. In addition, the “increase in paw size” value was “about 40%” in test [6] (10^-3M EKC/D (100 nmol/100 μl), 10 minutes after injection, saline about 50%); “about 20%” in test [6] (10^-3M EKC/D (100 nmol/100 μl), 30 minutes after injection); “about 40%” in test [6] (10^-3M EKC/D (100 nmol/100 μl), 50 minutes after injection); 40% in test [6] (10^-4M EKC/D (10 nmol/100 μl), 30 minutes after injection). For the same substance, the “anti-inflammatory effects, overall” value in test [6] (10^-4M EKC/D (10 nmol/100 μl)) is recorded as “weak anti-inflammatory effects”. Also, the paw size result in test [6] (10^-4M EKC/D (10 nmol/100 μl), 60 minutes after injection) is recorded as “almost at a normal level”. The “effect on paw size” value in test [6] (10^-5M EKC/D (1 nmol/100 μl)) and in test [6] (10^-6M EKC/D (100 pmol/100 μl)) was “No clear effects” throughout. Further, in test [7] (5 minutes after administration of EKC/D), the SP-induced hyperalgesia result is listed as “suppressed”. For the same substance, in test [7] (intrathecal administration to a rat), the “induction of scratching behavior or thermal hyperalgesia by the peptide itself” value is “does not induce”. Further, in test [7] (pre-administration of the peptide, intrathecal), the “scratching behavior and thermal hyperalgesia induced by administration of SP or EKA/B” value is “suppresses”.
